BindingDB's records for doi:10.1016/s0960-894x(98)00484-3 (National Chung-Hsing University, 1999)

Columns and labels:
[1] = target: T1, Carboxylic ester hydrolase (Equus caballus, UniProt Q9N1N9); test: (§1) Tested for kinetic data for the horse serum Butyrylcholinesterase-Catalyzed Hydrolysis of Butyrylthiocholine; 10e-3/M. sec; details: read-out: kon (M-1-s-1)
[2] = target: T1, Carboxylic ester hydrolase; test: ChEBML_41403; details: read-out: kon (M-1-s-1); source text: as §1

T1 sequence (Q9N1N9 whole entry): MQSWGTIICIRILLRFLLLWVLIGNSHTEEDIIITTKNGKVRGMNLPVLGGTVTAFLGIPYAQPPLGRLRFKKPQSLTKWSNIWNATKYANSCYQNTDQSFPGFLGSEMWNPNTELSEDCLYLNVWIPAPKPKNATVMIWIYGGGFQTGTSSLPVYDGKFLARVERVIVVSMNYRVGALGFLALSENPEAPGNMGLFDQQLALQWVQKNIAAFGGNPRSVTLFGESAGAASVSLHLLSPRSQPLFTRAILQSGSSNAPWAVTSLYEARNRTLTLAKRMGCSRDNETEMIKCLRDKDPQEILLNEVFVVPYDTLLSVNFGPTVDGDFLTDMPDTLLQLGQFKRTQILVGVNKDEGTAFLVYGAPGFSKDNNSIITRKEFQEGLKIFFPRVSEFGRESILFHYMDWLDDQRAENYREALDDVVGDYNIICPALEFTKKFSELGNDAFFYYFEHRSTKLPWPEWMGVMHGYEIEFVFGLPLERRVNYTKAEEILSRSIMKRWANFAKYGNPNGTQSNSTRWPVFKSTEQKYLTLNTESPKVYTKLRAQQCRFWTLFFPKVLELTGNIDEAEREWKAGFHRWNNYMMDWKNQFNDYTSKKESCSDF

Compound | kon [1] | kon [2]
CCCCNC(=O)OC1C2CC3CC(C2)CC1C3 (centres undefined) | 1800 M⁻¹ s⁻¹ | –
CCCCNC(=O)OC1C[C@H]2CCC1C2 (stereo partly drawn) [Butyl-carbamic acid (S)-bicyclo[2.2.1]hept-2-yl ester] | 110000 M⁻¹ s⁻¹ | 2200 M⁻¹ s⁻¹
CCCCNC(=O)OC12CC3CC(CC(C3)C1)C2 [Butyl-carbamic acid adamantan-1-yl ester] | 1900 M⁻¹ s⁻¹ | –
